Assay results taken from PubChem BioAssay AID1918993 (Molecular Pharmacology Branch, DTP, NCI, 2023).
pIC50: −log10 of the molar value.

System: 233499-124-R-J3-PDC complex spheroid growth
Assay: Anticancer human tumor 233499-124-R-J3-PDC patient-derived colon adenocarcinoma cell line growth inhibition [AhR]
Conditions: for pIC50: curve of first compound; for viability, T/C: stronger effect = lower value
How it was run: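 Agents were dosed in half-log steps down from roughly clinical Cmax, or from 10 microM where Cmax was unknown, alone and with AhR antagonists. Read-out: percent test/control growth of tumor spheroids containing HUVEC and MSC stromal cells.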

[1] = second compound 0.1 µM, first compound 0.0316 µM
[2] = second compound 0.1 µM, first compound 0.1 µM
[3] = second compound 0.1 µM, first compound 0.316 µM
[4] = second compound 0.1 µM, first compound 1 µM
[5] = second compound 0.316 µM, first compound 0.0316 µM
[6] = second compound 0.316 µM, first compound 0.1 µM
[7] = second compound 0.316 µM, first compound 0.316 µM
[8] = second compound 0.316 µM, first compound 1 µM
[9] = second compound 1 µM, first compound 0.0316 µM
[10] = second compound 1 µM, first compound 0.1 µM
[11] = second compound 1 µM, first compound 0.316 µM
[12] = second compound 1 µM, first compound 1 µM
[13] = second compound 3.16 µM, first compound 0.0316 µM
[14] = second compound 3.16 µM, first compound 0.1 µM
[15] = second compound 3.16 µM, first compound 0.316 µM
[16] = second compound 3.16 µM, first compound 1 µM
[17] = second compound 10 µM, first compound 0.0316 µM
[18] = second compound 10 µM, first compound 0.1 µM
[19] = second compound 10 µM, first compound 0.316 µM
[20] = second compound 10 µM, first compound 1 µM
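Also: spheroids exposed to agents for seven days before reading.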

Q: With `CC1COCCN1c1cc(-c2ccnn2C)c2ccnc(-c3ccn[nH]3)c2n1` (stereo not given) + CC(CO)NC(=O)c1cc(-c2ccc(Cl)cc2)nn(-c2cnn(C)c2)c1=O as the compound, how does the pIC50 (second compound 0.1 µM) read?
A: 6.29

Q: What about the pIC50 (second compound 0.316 µM) of the same compound?
A: 6.22

Q: What about the pIC50 (second compound 1 µM) of the same compound?
A: 6.26

Q: And the pIC50 (second compound 3.16 µM)?
A: 6.19

Q: What about the pIC50 (second compound 10 µM) of the same compound?
A: 6.64

Q: And the viability, T/C (second compound 0.1 µM, first compound 0.00316 µM)?
A: 97.6%

Q: And the viability, T/C (second compound 0.1 µM, first compound 0.01 µM)?
A: 95.3%

Q: And the viability, T/C [1]?
A: 89.1%

Q: What about the viability, T/C [2] of the same compound?
A: 83.9%

Q: And the viability, T/C [3]?
A: 63%

Q: And the viability, T/C [4]?
A: 31.7%

Q: What about the viability, T/C (second compound 0.316 µM, first compound 0.00316 µM) of the same compound?
A: 90.3%

Q: What about the viability, T/C (second compound 0.316 µM, first compound 0.01 µM) of the same compound?
A: 102%

Q: And the viability, T/C [5]?
A: 90.3%

Q: What about the viability, T/C [6] of the same compound?
A: 84.9%

Q: What about the viability, T/C [7] of the same compound?
A: 68.1%

Q: And the viability, T/C [8]?
A: 36.5%

Q: What about the viability, T/C (second compound 1 µM, first compound 0.00316 µM) of the same compound?
A: 106%

Q: And the viability, T/C (second compound 1 µM, first compound 0.01 µM)?
A: 101%

Q: And the viability, T/C [9]?
A: 97.9%

Q: What about the viability, T/C [10] of the same compound?
A: 82.5%

Q: And the viability, T/C [11]?
A: 60.8%

Q: And the viability, T/C [12]?
A: 38.2%

Q: What about the viability, T/C (second compound 3.16 µM, first compound 0.00316 µM) of the same compound?
A: 81.9%

Q: And the viability, T/C (second compound 3.16 µM, first compound 0.01 µM)?
A: 86.9%

Q: What about the viability, T/C [13] of the same compound?
A: 87.2%

Q: And the viability, T/C [14]?
A: 85.6%

Q: And the viability, T/C [15]?
A: 60.8%

Q: What about the viability, T/C [16] of the same compound?
A: 43.6%

Q: And the viability, T/C (second compound 10 µM, first compound 0.00316 µM)?
A: 83.3%

Q: What about the viability, T/C (second compound 10 µM, first compound 0.01 µM) of the same compound?
A: 90%

Q: What about the viability, T/C [17] of the same compound?
A: 80.8%

Q: What about the viability, T/C [18] of the same compound?
A: 59%

Q: What about the viability, T/C [19] of the same compound?
A: 49%

Q: And the viability, T/C [20]?
A: 33.4%

Q: How did the pIC50 (second compound 0.1 µM) turn out when `Nc1ncn(C2CC(O)C(CO)S2)c(=O)n1` (stereo not given) + Cc1cncc(-c2nc(NCCc3c[nH]c4ccccc34)c3ncn(C(C)C)c3n2)c1 was run?
A: < 6.52

Q: What about the pIC50 (second compound 0.316 µM) of the same compound?
A: < 6.52

Q: And the pIC50 (second compound 1 µM)?
A: < 6.52

Q: And the pIC50 (second compound 3.16 µM)?
A: < 6.52

Q: What about the pIC50 (second compound 10 µM) of the same compound?
A: > 9.02

Q: What about the viability, T/C (second compound 0.1 µM, first compound 0.000949 µM) of the same compound?
A: 89.6%

Q: What about the viability, T/C (second compound 0.1 µM, first compound 0.003 µM) of the same compound?
A: 96.5%

Q: What about the viability, T/C (second compound 0.1 µM, first compound 0.00949 µM) of the same compound?
A: 89.8%

Q: What about the viability, T/C (second compound 0.1 µM, first compound 0.03 µM) of the same compound?
A: 93.9%

Q: What about the viability, T/C (second compound 0.1 µM, first compound 0.0949 µM) of the same compound?
A: 103%

Q: What about the viability, T/C (second compound 0.1 µM, first compound 0.3 µM) of the same compound?
A: 103%

Q: And the viability, T/C (second compound 0.316 µM, first compound 0.000949 µM)?
A: 72.9%

Q: What about the viability, T/C (second compound 0.316 µM, first compound 0.003 µM) of the same compound?
A: 83%

Q: What about the viability, T/C (second compound 0.316 µM, first compound 0.00949 µM) of the same compound?
A: 86.9%

Q: And the viability, T/C (second compound 0.316 µM, first compound 0.03 µM)?
A: 89.6%

Q: What about the viability, T/C (second compound 0.316 µM, first compound 0.0949 µM) of the same compound?
A: 96.9%

Q: And the viability, T/C (second compound 0.316 µM, first compound 0.3 µM)?
A: 97.1%

Q: What about the viability, T/C (second compound 1 µM, first compound 0.000949 µM) of the same compound?
A: 77.3%

Q: What about the viability, T/C (second compound 1 µM, first compound 0.003 µM) of the same compound?
A: 66.2%

Q: What about the viability, T/C (second compound 1 µM, first compound 0.00949 µM) of the same compound?
A: 84.6%

Q: What about the viability, T/C (second compound 1 µM, first compound 0.03 µM) of the same compound?
A: 85.6%

Q: What about the viability, T/C (second compound 1 µM, first compound 0.0949 µM) of the same compound?
A: 89.1%

Q: What about the viability, T/C (second compound 1 µM, first compound 0.3 µM) of the same compound?
A: 83.4%

Q: And the viability, T/C (second compound 3.16 µM, first compound 0.000949 µM)?
A: 101%

Q: What about the viability, T/C (second compound 3.16 µM, first compound 0.003 µM) of the same compound?
A: 94.3%

Q: What about the viability, T/C (second compound 3.16 µM, first compound 0.00949 µM) of the same compound?
A: 97.1%

Q: And the viability, T/C (second compound 3.16 µM, first compound 0.03 µM)?
A: 103%

Q: What about the viability, T/C (second compound 3.16 µM, first compound 0.0949 µM) of the same compound?
A: 104%

Q: And the viability, T/C (second compound 3.16 µM, first compound 0.3 µM)?
A: 99.4%

Q: What about the viability, T/C (second compound 10 µM, first compound 0.000949 µM) of the same compound?
A: 8.85%

Q: What about the viability, T/C (second compound 10 µM, first compound 0.003 µM) of the same compound?
A: 8.14%

Q: What about the viability, T/C (second compound 10 µM, first compound 0.00949 µM) of the same compound?
A: 14.4%

Q: And the viability, T/C (second compound 10 µM, first compound 0.03 µM)?
A: 16.2%

Q: And the viability, T/C (second compound 10 µM, first compound 0.0949 µM)?
A: 20.1%

Q: What about the viability, T/C (second compound 10 µM, first compound 0.3 µM) of the same compound?
A: 26.1%

Q: What does the source list for `COc1cc(Nc2ncc3c(n2)-c2ccc(Cl)cc2C(c2c(F)cccc2OC)=NC3)ccc1C(=O)O` + CC(CO)NC(=O)c1cc(-c2ccc(Cl)cc2)nn(-c2cnn(C)c2)c1=O?
A: pIC50 (second compound 0.1 µM): < 5.00; pIC50 (second compound 0.316 µM): < 5.00; pIC50 (second compound 1 µM): < 5.00; pIC50 (second compound 3.16 µM): < 5.00; pIC50 (second compound 10 µM): < 5.00; viability, T/C [1]: 75.4%; viability, T/C [2]: 74.5%; viability, T/C [3]: 81%; viability, T/C [4]: 91.4%; viability, T/C (second compound 0.1 µM, first compound 3.16 µM): 84.6%; viability, T/C (second compound 0.1 µM, first compound 10 µM): 82.9%; viability, T/C [5]: 75.6%; viability, T/C [6]: 73.6%; viability, T/C [7]: 86.3%; viability, T/C [8]: 77.2%; viability, T/C (second compound 0.316 µM, first compound 3.16 µM): 62.8%; viability, T/C (second compound 0.316 µM, first compound 10 µM): 94%; viability, T/C [9]: 78.7%; viability, T/C [10]: 76.9%; viability, T/C [11]: 96%; viability, T/C [12]: 72.5%; viability, T/C (second compound 1 µM, first compound 3.16 µM): 87.7%; viability, T/C (second compound 1 µM, first compound 10 µM): 74%; viability, T/C [13]: 57.9%; viability, T/C [14]: 67.4%; viability, T/C [15]: 86.3%; viability, T/C [16]: 89.1%; viability, T/C (second compound 3.16 µM, first compound 3.16 µM): 84.7%; viability, T/C (second compound 3.16 µM, first compound 10 µM): 84.9%; viability, T/C [17]: 58.8%; viability, T/C [18]: 62.8%; viability, T/C [19]: 73.8%; viability, T/C [20]: 65.4%; viability, T/C (second compound 10 µM, first compound 3.16 µM): 57.9%; viability, T/C (second compound 10 µM, first compound 10 µM): 59.2%
